# Columns and labels:
# Assay in all cases: relative viability (nuclei count vs DMSO), 5 days (fraction); higher = more cells survive
# [1] = compound: CNC(=O)c1ccccc1Sc1ccc2c(/C=C/c3ccccn3)n[nH]c2c1 [Axitinib] + Cc1nc(Nc2ncc(C(=O)Nc3c(C)cccc3Cl)s2)cc(N2CCN(CCO)CC2)n1 [Dasatinib] (partner 0.075 µM)
# Procedure, shortened: (§1)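 Lung cancer cell lines were seeded in 1536-well plates and dosed by pin tool the next day, with either a single drug or a fixed anchor-drug dose combined with five library-drug doses (not always all listed) spaced in √10 steps. Five days later, one step fixed the cells and stained their nuclei (final 0.05% Triton X-100, 1% formaldehyde, 1 ug/ml Hoechst), and nuclei were counted on 4× images. Relative viability is the nuclei count in treated wells divided by the count in vehicle wells, and each value is the median of duplicate plates.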
# [2] = compound: CC1=CC=C(C=C1)C(=O)CN2C3=C(CCCC3)SC2=N [Pifithrin_alpha] + O=C(c1cc(Cc2n[nH]c(=O)c3ccccc23)ccc1F)N1CCN(C(=O)C2CC2)CC1 [Olaparib] (partner 8 µM)
# Procedure, shortened: as §1
# [3] = compound: CNC(=O)c1ccccc1Sc1ccc2c(/C=C/c3ccccn3)n[nH]c2c1 [Axitinib] + NC(=O)Nc1cc(-c2cccc(F)c2)sc1C(=O)N[C@H]1CCCNC1 [AZD7762] (partner 0.2 µM)
# Procedure, shortened: as §1
# [4] = compound: CNC(=O)c1ccccc1Sc1ccc2c(/C=C/c3ccccn3)n[nH]c2c1 [Axitinib] + CS(=O)(=O)N1CCN(Cc2cc3nc(-c4cccc5[nH]ncc45)nc(N4CCOCC4)c3s2)CC1 [Pictilisib] (partner 1 µM)
# Procedure, shortened: as §1
Cell Line,relative viability ([1]; first compound 0.005 µM),relative viability ([1]; first compound 0.01581 µM),relative viability ([1]; first compound 0.05 µM),relative viability ([1]; first compound 0.1581 µM),relative viability ([1]; first compound 0.5 µM),relative viability ([2]; first compound 1 µM),relative viability ([2]; first compound 3.162 µM),relative viability ([2]; first compound 10 µM),relative viability ([2]; first compound 31.62 µM),relative viability ([2]; first compound 100 µM),relative viability ([3]; first compound 0.005 µM),relative viability ([3]; first compound 0.01581 µM),relative viability ([3]; first compound 0.05 µM),relative viability ([3]; first compound 0.1581 µM),relative viability ([3]; first compound 0.5 µM),relative viability ([4]; first compound 0.005 µM),relative viability ([4]; first compound 0.01581 µM),relative viability ([4]; first compound 0.05 µM),relative viability ([4]; first compound 0.1581 µM),relative viability ([4]; first compound 0.5 µM)
NCI-H727,0.403,0.371,0.436,0.465,0.347,0.71,0.843,0.68,0.583,0.597,0.488,0.554,0.629,0.738,0.584,0.486,0.426,0.485,0.397,0.492
NCI-H838,0.288,0.352,0.342,0.282,0.262,0.723,0.505,0.469,0.363,0.534,0.929,0.97,0.963,0.926,1.06,0.461,0.37,0.551,0.594,0.607
NCI-H1355,0.723,0.766,0.779,0.757,0.642,0.653,0.52,0.413,0.442,0.345,0.799,0.833,0.845,0.769,0.735,0.41,0.514,0.606,0.432,0.308

# Source: the supplement of paper PMC10307832
